Values of other authors, collected in patent US20020137779A1, “Use of L-2-oxothiazolidine-4-carboxylic acid for the treatment of type 2 diabetes” (Advanced Biochemicals Inc., priority 2001, published 2002).

Tested on: mice
Conditions: oral administration at 9.5 mmol/kg in mice; cited from earlier work

CC(=O)Nc1ccc(O)cc1 [acetaminophen, reference compound]
mortality: more than 90%
